Data on 26 compounds can be found in ChEMBL document CHEMBL5143615, “Novel 2-aryl-4-aryloxyquinoline-based fungistatics for Mucor circinelloides. Biological evaluation of activity, QSAR and docking study” (Bioorg Med Chem Lett, 2022).

Common to all, as to format: functional
Set-up in all cases: scale not given: the % may be the effect or the level left

Assay [1] concerns Mucor circinelloides. Nature of the assay: Antifungal activity against Mucor circinelloides M5 strain assessed as reduction in spore germination at 100 ug/ml relative to control. Particulars: dose 100 µg/ml.
The test system of assay [2] is Mucor circinelloides. Kind of assay: Antifungal activity against Mucor circinelloides R7B wild type strain assessed as reduction in spore germination at 100 ug/ml relative to control. Particulars: dose 100 µg/ml.
Assay [3] concerns Mucor circinelloides. Kind of assay: Antifungal activity against Mucor circinelloides R7B wild type strain assessed as reduction in spore germination at 25 ug/ml relative to control. Particulars: dose 25 µg/ml.
For assay [4], the system named is Mucor circinelloides. Kind of assay: Antifungal activity against Mucor circinelloides M5 strain assessed as reduction in spore germination at 25 ug/ml relative to control. Particulars: dose 25 µg/ml.
Assay [5] deals with Mucor circinelloides. Kind of assay: Antifungal activity against Mucor circinelloides R7B wild type strain assessed as reduction in spore germination at 150 ug/ml relative to control. The settings on record: dose 150 µg/ml.
For assay [6], the system named is Mucor circinelloides. Kind of assay: Antifungal activity against Mucor circinelloides R7B wild type strain assessed as reduction in spore germination at 50 ug/ml relative to control. Particulars: dose 50 µg/ml.
In assay [7] the test system is Mucor circinelloides. Nature of the assay: Antifungal activity against Mucor circinelloides M5 strain assessed as reduction in spore germination at 150 ug/ml relative to control. The settings on record: dose 150 µg/ml.
The test system of assay [8] is Mucor circinelloides. Kind of assay: Antifungal activity against Mucor circinelloides M5 strain assessed as reduction in spore germination at 50 ug/ml relative to control. Particulars: dose 50 µg/ml.

For `Clc1ccc(-c2cc(Oc3ccccc3)c3ccccc3n2)cc1`, the values for the Activity in assay [1] and in assay [2] were 32.3% and 36.1%, respectively.

Regarding `Cc1cccc(-c2cc(Oc3ccc([N+](=O)[O-])cc3)c3ccccc3n2)c1`, the Activity in assay [1] and in assay [2] was 98.1% in each case.

Regarding `Cc1cc(C)cc(-c2ccc3ccccc3n2)c1`, the Activity in assay [1] was found to be 87.6%; in assay [2] it was 84.9%.

For the compound `COc1cc(-c2cc(F)cc(F)c2)nc2ccccc12`, the Activity is reported as 29.7% in assay [1] and 32.8% in assay [2].

For `Fc1ccc(-c2cc(Oc3ccccc3)c3ccccc3n2)cc1`, the Activity is 38.6% in assay [1] and 39.8% in assay [2].

`c1ccc(Oc2cc(-c3ccc4c(c3)OCO4)nc3ccccc23)cc1`: the Activity in assay [1] was 29.5%; in assay [3], 74.2%; in assay [4], 69.7%; in assay [5] it was 21.6%; in assay [2] it was 28.2%; in assay [6] it was 47.6%. Besides, the results for the Activity in assay [7] and in assay [8] were 23.4% and 52.8%, respectively.

Turning to `O=[N+]([O-])c1ccc(Oc2cc(-c3cccc(C(F)(F)F)c3)nc3ccccc23)cc1`, the Activity in assay [1] is recorded as 29.7%; in assay [2] it was 32.8%.

In the case of `COc1cc(-c2ccc(Cl)c(Cl)c2)nc2ccccc12`, the Activity in assay [1] amounted to 93.7%; in assay [2] it was 96.1%.

Take `COc1cc(-c2ccc(F)cc2)nc2ccccc12`: the Activity in assay [1] is given as 20.6%; in assay [3] it was 73.1%; in assay [4], 78.4%; in assay [5], 12.6%; in assay [2], 17.1%; in assay [6], 60.3%. The Activity is 14.9% in assay [7] and 47.9% in assay [8].

`Clc1cccc(-c2cc(Oc3ccccc3)c3ccccc3n2)c1`: the Activity is on record as 85.6% in assay [1] and 89.1% in assay [2].

For `O=[N+]([O-])c1ccc(Oc2cc(-c3cccc(Cl)c3)nc3ccccc23)cc1`, the Activity in assay [1] is 21.9%; in assay [2] it was 32.7%.

For `COc1ccc(-c2cc(Oc3ccccc3)c3ccccc3n2)cc1`, the Activity was 92.1% in assay [1] and 94.3% in assay [2].

With `COc1ccc(-c2cc(OC)c3ccccc3n2)cc1OC`, the Activity in assay [1] was 96.2%; in assay [2], 97.1%.

On to `COc1ccc(-c2cc(Oc3ccccc3)c3ccccc3n2)cc1OC`, for which the Activity in assay [1] is 98.2%; in assay [2], 98.1%.

Regarding `c1ccc(Oc2cc(-c3ccccc3)nc3ccccc23)cc1`, the Activity stood at 97.9% in assay [1] and 97.4% in assay [2].

Turning to `O=[N+]([O-])c1ccc(Oc2cc(-c3ccc(Cl)c(Cl)c3)nc3ccccc23)cc1`, the values for the Activity in assay [1] and in assay [2] were 85.9% and 83.9%, respectively.

Turning to `COc1cc(-c2ccccc2)nc2ccccc12`, the Activity in assay [1] is 95.8%; in assay [2], 97.8%.

As for `O=[N+]([O-])c1ccc(Oc2cc(-c3ccc(Cl)cc3)nc3ccccc23)cc1`, the figures for the Activity in assay [1] and in assay [2] were 82.9% and 81.7%, respectively.

In the case of `COc1cc(-c2ccc(Cl)cc2)nc2ccccc12`, the results for the Activity in assay [1] and in assay [2] were 97.3% and 98.1%, respectively.

As to `O=[N+]([O-])c1ccc(Oc2cc(-c3ccccc3)nc3ccccc23)cc1`, the Activity in assay [1] is recorded as 98.2%; in assay [2], 98.1%.

`COc1cc(-c2ccc(C)cc2)nc2ccccc12`: the values for the Activity in assay [1] and in assay [2] were 84.9% and 81.9%, respectively.

In the case of `FC(F)(F)c1ccc(Oc2cc(-c3cccc(Cl)c3)nc3ccccc23)cc1`, the Activity in assay [1] is recorded as 38.3%; in assay [2] it was 42.2%.

As for `Clc1ccc(-c2cc(Oc3ccccc3)c3ccccc3n2)cc1Cl`, the Activity in assay [1] was found to be 57.8%; in assay [2], 60.8%.

`COc1cc(-c2cccc(C(F)(F)F)c2)nc2ccccc12`: the Activity worked out at 89.7% in assay [1] and 88.9% in assay [2].

As to `c1ccc(-c2ccc3ccccc3n2)cc1` [2-PHENYLQUINOLINE], the Activity in assay [1] amounted to 98.2%; in assay [2], 98.1%.

As for `Fc1cc(F)cc(-c2ccc3ccccc3n2)c1`, the Activity in assay [1] is 59.5%; in assay [2] it was 57.5%.
